Measured values as given in article PMC12125794 (Annals of Clinical Microbiology and Antimicrobials, 2025).

How the values were obtained:
KPC-2 [1] = molecular target: T1, KPC-2 (Klebsiella pneumoniae, UniProt Q9F663); type: biochemical
KPC-2 [2] = molecular target: T1, KPC-2; type: biochemical; remark: listed apart in the source

T1 sequence (Q9F663 25-293 limits assumed): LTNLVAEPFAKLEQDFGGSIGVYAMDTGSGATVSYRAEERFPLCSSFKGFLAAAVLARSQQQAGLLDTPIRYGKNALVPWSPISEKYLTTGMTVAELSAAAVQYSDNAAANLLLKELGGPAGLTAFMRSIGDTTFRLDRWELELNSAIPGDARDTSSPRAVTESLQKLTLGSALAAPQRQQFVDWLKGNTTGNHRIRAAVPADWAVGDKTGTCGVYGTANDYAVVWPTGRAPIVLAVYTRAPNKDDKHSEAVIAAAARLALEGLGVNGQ

| SMILES | hydrolysis progress curves at 300 nm, 30 nM purified enzyme, 50 μM meropenem (KPC-2 [1]) | steady-state hydrolysis kinetics (Michaelis-Menten), purified enzyme (KPC-2 [2]) |
| --- | --- | --- |
| C[C@@H](O)[C@H]1C(=O)N2C(C(=O)O)=C(S[C@@H]3CN[C@H](C(=O)N(C)C)C3)[C@H](C)[C@H]12 [meropenem] | Compared with KPC-2, catalytic efficiencies of KPC-87 for nitrocefin and meropenem decreased sharply |  |
| O=C(Cc1cccs1)N[C@@H]1C(=O)N2C(C(=O)O)=C(/C=C/c3ccc([N+](=O)[O-])cc3[N+](=O)[O-])CS[C@H]12 [nitrocefin] |  | Compared with KPC-2, catalytic efficiencies of KPC-87 for nitrocefin and meropenem decreased sharply |
